Measured values as given in article PMC9412300, “In Vitro Evaluation and Mitigation of Niclosamide’s Liabilities as a COVID-19 Treatment” (Vaccines, 2022).
Read-outs that look alike come from different tables or passages of the source.

Tests used:
[1] = Cell viability (cell count per well) in H1437, 72 h compound exposure; format: cell-based, human; conditions: human
[2] = in vitro; conditions: African green monkey
[3] = system: VeroE6 cells
[4] = system: H1437 cells; test: Cell viability (cell count per well) in H1437, 72 h compound exposure; format: cell-based, human; conditions: H1437 infected with WA1, 72 h compound exposure
[5] = Cell viability in VeroE6, shortened 24 h infection assay; conditions: African green monkey
[6] = system: SARS-CoV-2 B.1.1.7 (alpha); test: microbe, parasite or virus in culture; format: cell-based
[7] = system: SARS-CoV-2 WA1 (wildtype); test: microbe, parasite or virus in culture; format: cell-based
[8] = in vitro; conditions: African green monkey; remark: listed apart in the source
[9] = system: SARS-CoV-2; design: method as in PMID 35138402; conditions: phase 2, 2 g orally for 7 days; cited from earlier work
[10] = design: method as in PMID 33842908; conditions: phase 1, 50 mg over 2.5 days inhalable/intranasal; cited from earlier work
[11] = design: method as in PMID 26848771, PMID 31040114; conditions: cited from earlier work
[12] = system: SARS-CoV-2 B.1.617.2 (delta); test: microbe, parasite or virus in culture; format: cell-based; conditions: Severe acute respiratory syndrome coronavirus 2, Vero C1008; read-out: IC50 against B.1.617.2, 24 h infection
[13] = system: SARS-CoV-2 P.1 (gamma); test: microbe, parasite or virus in culture; format: cell-based; conditions: Severe acute respiratory syndrome coronavirus 2, Vero C1008; read-out: IC50 against P.1, 24 h infection
[14] = system: SARS-CoV-2 B.1.351 (beta); test: microbe, parasite or virus in culture; format: cell-based; conditions: Severe acute respiratory syndrome coronavirus 2, Vero C1008; read-out: IC50 against B.1.351, 24 h infection
[15] = design: method as in PMID 26848771, PMID 31040114; conditions: cited from earlier work; remark: listed apart in the source
[16] = system: SARS-CoV; conditions: cited from earlier work
[17] = rats, oral administration at 5 mg/kg; cited from earlier work
[18] = H1437 cells infected with SARS-CoV-2 WA1, H1437 infected with WA1, 72 h compound exposure, read-out: H1437 (WA1) CC50
[19] = Severe acute respiratory syndrome coronavirus 2, Vero C1008, 24 h; read-out: IC50 B.1.1.7 (protonophores)
[20] = Severe acute respiratory syndrome coronavirus 2, Vero C1008, 24 h; read-out: IC50 WA1 (protonophores)

Compound	CC50 [3]	CC50 [4]	also measured
O=C(Nc1ccc([N+](=O)[O-])cc1Cl)c1ccccc1O [Compound 2]	–	–	CC50 at 72 h [1, 18]: 8.4 µM; CC50 [2]: 5.59 µM
O=C(Nc1ccc(Br)cc1Cl)c1cc(Cl)ccc1O [Compound 34]	5.47 µM	3.62 µM	–
O=C(Nc1ccc([N+](=O)[O-])cc1Cl)c1cccc(Cl)c1 [Compound 9]	–	–	CC50 at 72 h [1, 18]: > 20 µM; CC50 [2]: > 20 µM
COC(=O)c1ccc(NC(=O)c2cc(C(C)(C)C)ccc2O)c(Cl)c1 [Compound 13]	14.6 µM	> 20 µM	–
Cc1cc(NC(=O)c2cc(C(C)(C)C)cc(C(C)(C)C)c2O)ccc1C(=O)O [Compound 27]	> 20 µM	–	–
CC(C)(C)c1ccc(O)c(C(=O)Nc2ccc([N+](=O)[O-])cc2Cl)c1 [Compound 11]	–	–	CC50 at 72 h [1, 18]: 1.92 µM; CC50 [2]: 3.41 µM
Cc1ccc(NC(=O)c2cc(Cl)ccc2O)c(Cl)c1 [Compound 6]	4.59 µM	6.05 µM	–
O=C(Nc1ccccc1Cl)c1cc(Cl)ccc1O [Compound 5]	8.44 µM	18.6 µM	–
COc1ccc(O)c(C(=O)Nc2ccc([N+](=O)[O-])cc2Cl)c1 [Compound 12]	10.3 µM	7.53 µM	–
COC(=O)c1ccc(NC(=O)c2cc(Cl)ccc2O)c(Cl)c1 [Compound 7]	–	–	CC50 at 72 h [1, 18]: > 20 µM; CC50 [2]: 8.14 µM
CC(C)(C)c1ccc(O)c(C(=O)Nc2ccc(C(=O)O)cc2F)c1 [Compound 15]	> 20 µM	> 20 µM	–
N#Cc1ccc(NC(=O)c2cc(Cl)ccc2O)c(Cl)c1 [Compound 24]	–	–	CC50 at 72 h [1, 18]: 0.88 µM; CC50 [2]: 4.72 µM
COC(=O)c1ccc(NC(=O)c2cc(C(F)(F)F)ccc2O)c(C)c1 [Compound 23]	> 20 µM	> 20 µM	–
Cc1cc(C(=O)O)ccc1NC(=O)c1cc(C(C)(C)C)ccc1O [Compound 16]	> 20 µM	> 20 µM	–
COc1ccc(NC(=O)c2cc(Cl)ccc2O)c(Cl)c1 [Compound 10]	> 20 µM	18.9 µM	–
O=c1oc2ccccc2c(O)c1Cc1c(O)c2ccccc2oc1=O [Dicumarol, dicumarol]	–	–	CC50 at 25 h [5]: > 100 µM; IC50 [6, 19]: > 100 µM; IC50 [7, 20]: > 100 µM
CC(C)(C)c1cccc(C(=O)Nc2ccc(NS(C)(=O)=O)cc2Cl)c1O [Compound 33]	> 20 µM	> 20 µM	–
CC(C)(C)c1ccc(O)c(C(=O)Nc2ccc(C(=O)O)cc2Cl)c1 [Compound 14]	14.2 µM	> 20 µM	–

Compound	CC50 [3]	CC50 [4]	also measured
N#CC(C#N)=NNc1ccc(OC(F)(F)F)cc1 [FCCP]	–	–	CC50 at 25 h [5]: 43 µM; IC50 ([6]; Severe acute respiratory syndrome coronavirus 2, Vero C1008, 24 h, read-out: IC50 B.1.1.7 (protonophores)): 13 µM; IC50 ([7]; Severe acute respiratory syndrome coronavirus 2, Vero C1008, 24 h, read-out: IC50 WA1 (protonophores)): 35 µM
O=C(Nc1cc(Cl)cc(Cl)c1O)c1c(O)c(Cl)cc(Cl)c1Cl [Oxyclozanide, oxyclozanide]	–	–	CC50 at 25 h [5]: > 100 µM; IC50 [6, 19]: 20 µM; IC50 [7, 20]: 64 µM
COc1ccc(O)c(C(=O)Nc2ccc(C(=O)O)cc2C)c1 [Compound 28]	> 20 µM	> 20 µM	–
CC(C)(C)c1cccc(C(=O)Nc2ccc([N+](=O)[O-])cc2Cl)c1O [Compound 31]	7.21 µM	1.11 µM	–
COC(=O)c1ccc(NC(=O)c2cc(C3CCCCC3)ccc2O)c(Cl)c1 [Compound 21]	> 20 µM	> 20 µM	–
Cc1ccc(O)c(C(=O)Nc2ccc([N+](=O)[O-])cc2Cl)c1 [Compound 3]	6.28 µM	3.06 µM	–
CC(C)(C)c1cccc(C(=O)Nc2ccc(C(=O)O)cc2Cl)c1O [Compound 30]	> 20 µM	> 20 µM	–
O=C(O)c1ccc(NC(=O)c2cc(Cl)ccc2O)c(Cl)c1 [Compound 8]	> 20 µM	> 20 µM	–
O=[N+]([O-])c1ccc(O)c([N+](=O)[O-])c1 [2,4 DNP]	–	–	CC50 [8]: > 100 µM; IC50 [6, 19]: > 100 µM; IC50 [7, 20]: > 100 µM
CC(C)(C)c1cc(C(=O)Nc2ccc(NS(C)(=O)=O)cc2Cl)c(O)c(C(C)(C)C)c1 [Compound 18]	> 20 µM	> 20 µM	–
Cc1cc(NC(=O)c2cc(C(C)(C)C)cc(C(C)(C)C)c2O)ccc1C(=O)O [Compound 20]	> 20 µM	> 20 µM	–
COC(=O)c1ccc(NC(=O)c2cccc(C(C)(C)C)c2O)c(Cl)c1 [Compound 25]	> 20 µM	> 20 µM	–
CC(C)(C)c1cc(C(=O)Nc2ccc(C(=O)O)cc2Cl)c(O)c(C(C)(C)C)c1 [Compound 26]	> 20 µM	> 20 µM	–
CC(C)(C)c1cccc(C(=O)Nc2ccc(N)cc2Cl)c1O [Compound 32]	> 20 µM	> 20 µM	–
O=C(O)c1ccc(NC(=O)c2cc(C3CCCCC3)ccc2O)c(Cl)c1 [Compound 22]	> 20 µM	> 20 µM	–
COc1ccc(O)c(C(=O)Nc2ccc([N+](=O)[O-])cc2Cl)c1 [Compound 4]	10.1 µM	8.94 µM	–
O=C(Nc1ccc([N+](=O)[O-])cc1Cl)c1cc(Cl)ccc1O [Niclosamide]	–	–	effect on the duration of the contagious period of SARS-CoV-2 [9]: no statistically significant effect; participants with moderate lung irritation [10]: 59%; CC50 at 72 h ([1]; H1437 cells infected with SARS-CoV-2 B.1.1.7, H1437 infected with B.1.1.7, 72 h compound exposure, read-out: H1437 (B.1.1.7) CC50): 0.438 µM; CC50 at 72 h [1, 18]: 17.1 µM; oral bioavailability [11]: < 10%; CC50 at 25 h ([5]; VeroE6 cells infected with SARS-CoV-2, CC50 (protonophores), VeroE6, 24 h infection conditions, starting concentration 100 μM): 66 µM; IC50 [6, 19]: 0.25 µM; IC50 ([6]; Severe acute respiratory syndrome coronavirus 2, Vero C1008; read-out: IC50 against B.1.1.7, 24 h infection): 0.298 µM; IC50 [12]: 0.774 ± 0.058 µM; IC50 [13]: 0.399 ± 0.034 µM; IC50 [7, 20]: 3.5 µM; IC50 ([7]; Severe acute respiratory syndrome coronavirus 2, Vero C1008; read-out: IC50 against WA1, 24 h infection): 1.66 µM; IC50 [14]: 0.44 ± 0.021 µM; water solubility [15]: poor; inhibition of SARS-CoV viral replication in vitro [16]: low micromolar potency; CC50 [2]: 1.05 µM; maximal serum concentration (Cmax) [17]: 354 ± 152 ng/mL
CC(C)(C)c1cc(C(=O)Nc2ccc(N)cc2Cl)c(O)c(C(C)(C)C)c1 [Compound 19]	17.6 µM	> 20 µM	–
